System: angiogenesis genes in dermal microvascular endothelial cells
Experiment: Real time RT-PCR of angiogenesis gene expression during endothelial tube formation
Type: cell-based
Conditions: 1 μM SM, 24 hours

## CC1CCN(CC[S-])CC1.O.O.[Cl][Pt+] [compound 292596]
  Log2 fold-change of gene expression: 1839: −0.3
  Log2 fold-change of gene expression: 4247: −0.3
  Log2 fold-change of gene expression: 5569: 0.1
  Log2 fold-change of gene expression: 8131: 0.3
  Log2 fold-change of gene expression: 9569: −2.0
  Log2 fold-change of gene expression: 10988: 0.9
  Log2 fold-change of gene expression: 23001: 0.1
  Log2 fold-change of gene expression: 55332: −8.6
  Log2 fold-change of gene expression: 57722: −0.2
  Log2 fold-change of gene expression: 58488: 0.2
  Log2 fold-change of gene expression: 90780: −0.8
  Log2 fold-change of gene expression: 134265: −1.6
  Log2 fold-change of gene expression: AKT1: −0.8
  Log2 fold-change of gene expression: ANGPT1: 2.2
  Log2 fold-change of gene expression: ANGPT2: 0.8
  Log2 fold-change of gene expression: ANGPTL3: 1.0
  Log2 fold-change of gene expression: ANGPTL4: −3.2
  Log2 fold-change of gene expression: ANPEP: 0.8
  Log2 fold-change of gene expression: ANTXR1: −2.1
  Log2 fold-change of gene expression: APOE: 5.1
  Log2 fold-change of gene expression: ARHGEF1: −1.6
  Log2 fold-change of gene expression: Acvrl1: −1.6
  Log2 fold-change of gene expression: Adcy4: 4.3
  Log2 fold-change of gene expression: BAL1: 1.7
  Log2 fold-change of gene expression: BMP1: −0.4
  Log2 fold-change of gene expression: C1orf54: −2.2
  Log2 fold-change of gene expression: CALD1: 1.6
  Log2 fold-change of gene expression: CCL2: 2.4
  Log2 fold-change of gene expression: CCL11: 2.1
  Log2 fold-change of gene expression: CD248: 0.2
  Log2 fold-change of gene expression: CDH5: −0.2
  Log2 fold-change of gene expression: CENTD3: 0.1
  Log2 fold-change of gene expression: CLIC1: 0.6
  Log2 fold-change of gene expression: COL4A3: 1.9
  Log2 fold-change of gene expression: COL18A1: 2.3
  Log2 fold-change of gene expression: COMT: −0.7
  Log2 fold-change of gene expression: CST4: 0.3
  Log2 fold-change of gene expression: CTTNBP2NL: −3.4
  Log2 fold-change of gene expression: CXCL3: −3.8
  Log2 fold-change of gene expression: CXCL5: 5.6
  Log2 fold-change of gene expression: CXCL6: 2.2
  Log2 fold-change of gene expression: CXCL9: 1.5
  Log2 fold-change of gene expression: CXCL10: 2.5
  Log2 fold-change of gene expression: Calcr1: −4.3
  Log2 fold-change of gene expression: Caskin2: −2.3
  Log2 fold-change of gene expression: Ccbp2: 0.0
  Log2 fold-change of gene expression: Cldn5: −0.6
  Log2 fold-change of gene expression: DGKG: 1.8
  Log2 fold-change of gene expression: DKK3: −0.4
  Log2 fold-change of gene expression: DLL4: −6.6
  Log2 fold-change of gene expression: DUT: −1.2
  Log2 fold-change of gene expression: EFNA1: 3.1
  Log2 fold-change of gene expression: EFNA3: 0.5
  Log2 fold-change of gene expression: EFNB2: −3.4
  Log2 fold-change of gene expression: EGF: 2.2
  Log2 fold-change of gene expression: ENG: −0.3
  Log2 fold-change of gene expression: EPHB4: 0.9
  Log2 fold-change of gene expression: EREG: 9.6
  Log2 fold-change of gene expression: ESAM1: −2.0
  Log2 fold-change of gene expression: EXTL3: −0.5
  Log2 fold-change of gene expression: Egf17: −3.3
  Log2 fold-change of gene expression: Ehd4: −1.0
  Log2 fold-change of gene expression: Entpd1: −8.3
  Log2 fold-change of gene expression: Epas1: 0.3
  Log2 fold-change of gene expression: EphB1: 0.4
  Log2 fold-change of gene expression: Erg: −6.4
  Log2 fold-change of gene expression: FGF1: 4.8
  Log2 fold-change of gene expression: FGF2: 2.5
  Log2 fold-change of gene expression: FGFR3: 2.2
  Log2 fold-change of gene expression: FIGF: 1.7
  Log2 fold-change of gene expression: FLT1: −1.9
  Log2 fold-change of gene expression: Fgd5: −1.0
  Log2 fold-change of gene expression: GPCR124: −6.7
  Log2 fold-change of gene expression: GRRP1: 0.2
  Log2 fold-change of gene expression: Grp116: −3.1
  Log2 fold-change of gene expression: HAND2: 1.7
  Log2 fold-change of gene expression: HGF: 2.2
  Log2 fold-change of gene expression: HIF1A: −2.1
  Log2 fold-change of gene expression: HPSE: −0.3
  Log2 fold-change of gene expression: Hspa12b: −3.3
  Log2 fold-change of gene expression: ID1: 4.0
  Log2 fold-change of gene expression: ID3: 1.0
  Log2 fold-change of gene expression: IFNA1: 2.2
  Log2 fold-change of gene expression: IFNB1: 2.6
  Log2 fold-change of gene expression: IFNG: 6.5
  Log2 fold-change of gene expression: IGF1: 0.6
  Log2 fold-change of gene expression: IL1B: −4.1
  Log2 fold-change of gene expression: IL6: 3.7
  Log2 fold-change of gene expression: IL8: 5.1
  Log2 fold-change of gene expression: ITGAV: −0.9
  Log2 fold-change of gene expression: ITGB3: −1.8
  Log2 fold-change of gene expression: Icam1: 0.5
  Log2 fold-change of gene expression: Icam2: −0.4
  Log2 fold-change of gene expression: JAG1: 0.5
  Log2 fold-change of gene expression: KDR: −1.8
  Log2 fold-change of gene expression: Kifc1: 1.6
  Log2 fold-change of gene expression: LAMAS5: −0.3
  Log2 fold-change of gene expression: LECT1: 1.4
  Log2 fold-change of gene expression: LEP: 2.6
  Log2 fold-change of gene expression: Lasts2: 0.4
  Log2 fold-change of gene expression: Lrrk1: −1.5
  Log2 fold-change of gene expression: MDK: −1.5
  Log2 fold-change of gene expression: MMP2: 1.1
  Log2 fold-change of gene expression: MMP9: 1.8
  Log2 fold-change of gene expression: MMP11: −0.3
  Log2 fold-change of gene expression: MRC2: −0.5
  Log2 fold-change of gene expression: Mmm2: −2.4
  Log2 fold-change of gene expression: Myo1b: −2.0
  Log2 fold-change of gene expression: NID1: −3.6
  Log2 fold-change of gene expression: NM023516: 0.2
  Log2 fold-change of gene expression: NRP1: −2.3
  Log2 fold-change of gene expression: NRP2: −3.2
  Log2 fold-change of gene expression: Notch4: −0.6
  Log2 fold-change of gene expression: Npr3: 0.7
  Log2 fold-change of gene expression: PALD: −1.9
  Log2 fold-change of gene expression: PDCD2: −1.1
  Log2 fold-change of gene expression: PDGFA: 4.0
  Log2 fold-change of gene expression: PECAM1: −1.8
  Log2 fold-change of gene expression: PGF: −1.7
  Log2 fold-change of gene expression: PLAU: −0.2
  Log2 fold-change of gene expression: PLG: −0.4
  Log2 fold-change of gene expression: PNMT: −0.7
  Log2 fold-change of gene expression: PROK2: 2.0
  Log2 fold-change of gene expression: PTGS1: 1.1
  Log2 fold-change of gene expression: PTPRCAP: −0.5
  Log2 fold-change of gene expression: Pltp: 0.5
  Log2 fold-change of gene expression: Ptprb: −1.9
  Log2 fold-change of gene expression: Ptprm: −0.8
  Log2 fold-change of gene expression: RAMP2: −5.0
  Log2 fold-change of gene expression: RASD2: −0.5
  Log2 fold-change of gene expression: Rasip1: −0.5
  Log2 fold-change of gene expression: S1PR1: 0.2
  Log2 fold-change of gene expression: SERPINF1: 0.7
  Log2 fold-change of gene expression: SPHK1: 1.8
  Log2 fold-change of gene expression: STAB1: −0.5
  Log2 fold-change of gene expression: Sdc4: 1.4
  Log2 fold-change of gene expression: Sdpr: 0.8
  Log2 fold-change of gene expression: Slc43a3: 0.6
  Log2 fold-change of gene expression: Slco2a1: −1.0
  Log2 fold-change of gene expression: TEK: 1.3
  Log2 fold-change of gene expression: TGFA: 8.9
  Log2 fold-change of gene expression: TGFB1: −0.8
  Log2 fold-change of gene expression: TGFB2: 2.1
  Log2 fold-change of gene expression: TGFBR1: 1.4
  Log2 fold-change of gene expression: THBS1: −0.1
  Log2 fold-change of gene expression: THBS2: 1.1
  Log2 fold-change of gene expression: THY1: −5.8
  Log2 fold-change of gene expression: TIMP1: 1.4
  Log2 fold-change of gene expression: TIMP2: 0.4
  Log2 fold-change of gene expression: TIMP3: −1.2
  Log2 fold-change of gene expression: TNF: 6.1
  Log2 fold-change of gene expression: TNS1: −0.5
  Log2 fold-change of gene expression: TNS3: 1.3
  Log2 fold-change of gene expression: TRA2B: 0.9
  Log2 fold-change of gene expression: TYMP: −5.5
  Log2 fold-change of gene expression: VEGFA: 0.4
  Log2 fold-change of gene expression: VEGFC: 1.6
  Log2 fold-change of gene expression: VGLL4: −2.8
  Log2 fold-change of gene expression: Vwf: −2.6
  Log2 fold-change of gene expression: copa: −0.5
  Log2 fold-change of gene expression: itbp4: −1.5
  Log2 fold-change of gene expression: ralb: −0.5
  Log2 fold-change of gene expression: stard9: −0.9
1st listing (r49)
  Log2 fold-change of gene expression: B2M: −2.0
1st listing (r50)
  Log2 fold-change of gene expression: HPRT1: −0.5
1st listing (r51)
  Log2 fold-change of gene expression: RPL13A: 1.9
1st listing (r52)
  Log2 fold-change of gene expression: GADPH: 0.3
1st listing (r53)
  Log2 fold-change of gene expression: ACTB: 0.0
1st listing (r74)
  Log2 fold-change of gene expression: PLXDC1: 0.3
1st listing (r91)
  Log2 fold-change of gene expression: TNFAIP2: −0.2
1st listing (r95)
  Log2 fold-change of gene expression: Robo4: −1.2
1st listing (r134)
  Log2 fold-change of gene expression: 151516: 0.3
2nd listing (r92)
  Log2 fold-change of gene expression: TNFAIP2: −0.1
2nd listing (r97)
  Log2 fold-change of gene expression: B2M: −1.6
2nd listing (r98)
  Log2 fold-change of gene expression: HPRT1: 0.1
2nd listing (r99)
  Log2 fold-change of gene expression: RPL13A: 1.5
2nd listing (r100)
  Log2 fold-change of gene expression: GADPH: 0.8
2nd listing (r101)
  Log2 fold-change of gene expression: ACTB: −0.4
2nd listing (r104)
  Log2 fold-change of gene expression: PLXDC1: 0.2
2nd listing (r139)
  Log2 fold-change of gene expression: 151516: 0.3
2nd listing (r188)
  Log2 fold-change of gene expression: Robo4: 0.2
3rd listing (r145)
  Log2 fold-change of gene expression: B2M: −0.4
3rd listing (r146)
  Log2 fold-change of gene expression: HPRT1: 0.4
3rd listing (r147)
  Log2 fold-change of gene expression: RPL13A: 1.1
3rd listing (r148)
  Log2 fold-change of gene expression: GADPH: −0.3
3rd listing (r149)
  Log2 fold-change of gene expression: ACTB: −0.9
4th listing (r193)
  Log2 fold-change of gene expression: B2M: −0.8
4th listing (r194)
  Log2 fold-change of gene expression: HPRT1: 0.1
4th listing (r195)
  Log2 fold-change of gene expression: RPL13A: 0.6
4th listing (r196)
  Log2 fold-change of gene expression: GADPH: 0.4
4th listing (r197)
  Log2 fold-change of gene expression: ACTB: −0.1
